Experimental data from patent US8686150B2 (Sanofi, priority 2011, dated 2014).

Target: T1, human full-length recombinant PKC βII (Homo sapiens, UniProt P05771)
T1 construct: Active human full-length recombinant PKC βII; purchased Invitrogen GmbH, Darmstadt, Germany
Experiment: Determination of PKC βII inhibition (Caliper mobility-shift kinase assay, Fluorescein-RFARKGSLRQKNV peptide substrate)
Assay type: biochemical
Conditions: example compounds at a final concentration of 1.14 μM (±0.15 μM)
Outline: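 Compounds were tested at 1.14 μM final. Enzyme was activated by PS, DAG and CaCl2 in Hepes pH 7.4 with MgCl2, with substrate 3 μM and ATP 120 μM as pre-mix concentrations. After 60 min at 32 °C and an EDTA stop, Caliper separation gave fractional turnover, which was normalised to no-compound and no-enzyme controls.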

T1 sequence (P05771 1-673 isoform P05771-2): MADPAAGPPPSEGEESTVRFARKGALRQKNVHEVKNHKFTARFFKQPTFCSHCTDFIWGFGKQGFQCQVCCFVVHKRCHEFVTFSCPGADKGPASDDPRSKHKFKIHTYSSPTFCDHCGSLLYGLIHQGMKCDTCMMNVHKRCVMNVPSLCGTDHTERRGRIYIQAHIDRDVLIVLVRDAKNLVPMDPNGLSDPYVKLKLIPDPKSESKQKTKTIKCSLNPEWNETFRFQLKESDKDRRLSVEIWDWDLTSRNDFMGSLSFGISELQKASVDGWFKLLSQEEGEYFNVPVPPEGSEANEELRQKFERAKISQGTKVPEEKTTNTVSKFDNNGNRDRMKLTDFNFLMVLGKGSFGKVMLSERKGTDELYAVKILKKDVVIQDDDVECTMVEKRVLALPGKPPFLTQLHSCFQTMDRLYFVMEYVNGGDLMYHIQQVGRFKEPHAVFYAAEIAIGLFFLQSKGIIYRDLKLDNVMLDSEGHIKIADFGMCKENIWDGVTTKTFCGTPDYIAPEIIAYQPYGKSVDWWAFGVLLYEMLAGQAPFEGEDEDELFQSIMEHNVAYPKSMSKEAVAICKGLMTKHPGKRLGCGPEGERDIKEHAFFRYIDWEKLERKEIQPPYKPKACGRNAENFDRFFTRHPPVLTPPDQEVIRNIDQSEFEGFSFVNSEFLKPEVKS

inhibition at 1.14 µM [%] | Compound
90 | Cc1n[nH]c2nc(-c3ccc(O)cc3)cc(C(=O)N3CCC4(CC3)CNC4)c12 [Example 255, (2,7-Diaza-spiro[3.5]non-7-yl)-[6-(4-hydroxy-phenyl)-3-methyl-1H-pyrazolo[3,4-b]pyridin-4-yl]-methanone]
66 | Cc1n[nH]c2nc(-c3ccc(O)cc3)cc(C(=O)N3CCN4CCC[C@H]4C3)c12 [Example 383, (S)-Hexahydro-pyrrolo[1,2-a]pyrazin-2-yl-[6-(4-hydroxy-phenyl)-3-methyl-1H-pyrazolo[3,4-b]pyridin-4-yl]-methanone]
26 | Cc1cc(O)cc(C)c1-c1cc(C(=O)N2CCNCC2(C)C)c2c(C)n[nH]c2n1 [Example 156, (2,2-Dimethyl-piperazin-1-yl)-[6-(4-hydroxy-2,6-dimethyl-phenyl)-3-methyl-1H-pyrazolo[3,4-b]pyridin-4-yl]-methanone]
93 | Cc1n[nH]c2nc(-c3ccc(O)cc3F)cc(C(=O)NC(C)(C)CCN)c12 [Example 66, 6-(2-Fluoro-4-hydroxy-phenyl)-3-methyl-1H-pyrazolo[3,4-b]pyridine-4-carboxylic acid (3-amino-1,1-dimethyl-propyl)-amide]
81 | Cc1n[nH]c2nc(-c3ccc(O)cc3)cc(C(=O)NCCNC(C)C)c12 [Example 50, 6-(4-Hydroxy-phenyl)-3-methyl-1H-pyrazolo[3,4-b]pyridine-4-carboxylic acid (2-isopropylamino-ethyl)-amide]
81 | Cc1n[nH]c2nc(-c3ccc(O)cc3F)cc(C(=O)N3C[C@@H](C)N(CC4CCOCC4)C[C@@H]3C)c12 [Example 454, [(2S,5R)-2,5-Dimethyl-4-(tetra-hydro-pyran-4-yl-methyl)-piperazin-1-yl]-[6-(2-fluoro-4-hydroxy-phenyl)-3-methyl-1H-pyrazolo[3,4-b]pyridin-4-yl]-methanone]
100 | CCC1(CC)CNC(C)(C)CN1C(=O)c1cc(-c2ccc(O)cc2F)nc2[nH]nc(C)c12 [Example 450, (2,2-Diethyl-5,5-dimethyl-piperazin-1-yl)-[6-(2-fluoro-4-hydroxy-phenyl)-3-methyl-1H-pyrazolo[3,4-b]pyridin-4-yl]-methanone]
90 | Cc1n[nH]c2nc(-c3ccc(O)cc3)cc(C(=O)N3CCNCC3c3ccc(C(C)C)cc3)c12 (centres unmarked) [Example 94, [6-(4-Hydroxy-phenyl)-3-methyl-1H-pyrazolo[3,4-b]pyridin-4-yl]-[2-(4-isopropyl-phenyl)-piperazin-1-yl]-methanone]
93 | CNC1CCN(C(=O)c2cc(-c3ccc(O)cc3F)nc3[nH]nc(C)c23)CC1 [Example 58, [6-(2-Fluoro-4-hydroxy-phenyl)-3-methyl-1H-pyrazolo[3,4-b]pyridin-4-yl]-(4-methylamino-piperidin-1-yl)-methanone]
99 | Cc1n[nH]c2nc(-c3ccc(O)cc3)cc(C(=O)N3CCN[C@@H](CC(C)C)C3)c12 [Example 215, [6-(4-Hydroxy-phenyl)-3-methyl-1H-pyrazolo[3,4-b]pyridin-4-yl]-((S)-3-isobutyl-piperazin-1-yl)-methanone]
65 | Cc1n[nH]c2nc(-c3ccc(O)cc3)cc(C(=O)N3CCCC4(CCNC4)C3)c12 (centres unmarked) [Example 263, (2,7-Diaza-spiro[4.5]dec-7-yl)-[6-(4-hydroxy-phenyl)-3-methyl-1H-pyrazolo[3,4-b]pyridin-4-yl]-methanone]
95 | Cc1n[nH]c2nc(-c3ccc(O)cc3)cc(C(=O)N3CCNC[C@H]3C(=O)NC(C)(C)C)c12 [Example 232, (S)-1-[6-(4-Hydroxy-phenyl)-3-methyl-1H-pyrazolo[3,4-b]pyridine-4-carbonyl]-piperazine-2-carboxylic acid tert-butylamide]
38 | Cc1n[nH]c2nc(-c3ccc(O)cc3)cc(C(=O)N(C)CCNC(C)(C)C)c12 [Example 40, 6-(4-Hydroxy-phenyl)-3-methyl-1H-pyrazolo[3,4-b]pyridine-4-carboxylic acid (2-tert-butylamino-ethyl)-methyl-amide]
66 | Cc1n[nH]c2nc(-c3ccc(O)cc3)cc(C(=O)N3CCN(CCS(C)(=O)=O)CC3)c12 [Example 271, [6-(4-Hydroxy-phenyl)-3-methyl-1H-pyrazolo[3,4-b]pyridin-4-yl]-[4-(2-methanesulfonyl-ethyl)-piperazin-1-yl]-methanone]
72 | Cc1n[nH]c2nc(-c3ccc(O)cc3)cc(C(=O)NC(CN(C)C)c3ccccc3)c12 (centres unmarked) [Example 132, 6-(4-Hydroxy-phenyl)-3-methyl-1H-pyrazolo[3,4-b]pyridine-4-carboxylic acid (2-dimethylamino-1-phenyl-ethyl)-amide]
35 | CCOc1cc(-c2cc(C(=O)N3CCNCC3)c3c(C)n[nH]c3n2)ccc1O [Example 15, [6-(3-Ethoxy-4-hydroxy-phenyl)-3-methyl-1H-pyrazolo[3,4-b]pyridin-4-yl]-piperazin-1-yl-methanone]

inhibition at 1.14 µM [%] | Compound
86 | CCCc1n[nH]c2nc(-c3ccc(O)cc3)cc(C(=O)N3CCNCC3)c12 [Example 4]
78 | Cc1n[nH]c2nc(-c3ccc(O)cc3)cc(C(=O)N3CC[C@H](N(C)C)C3)c12 [Example 239, ((S)-3-Dimethylamino-pyrrolidin-1-yl)-[6-(4-hydroxy-phenyl)-3-methyl-1H-pyrazolo[3,4-b]pyridin-4-yl]-methanone]
53 | Cc1n[nH]c2nc(-c3ccc(O)cc3)cc(C(=O)N3CCN(C)CC3)c12 [Example 37, [6-(4-Hydroxy-phenyl)-3-methyl-1H-pyrazolo[3,4-b]pyridin-4-yl]-(4-methyl-piperazin-1-yl)-methanone]
85 | COc1cccc(C(CN)NC(=O)c2cc(-c3ccc(O)cc3)nc3[nH]nc(C)c23)c1 (centres unmarked) [Example 51, 6-(4-Hydroxy-phenyl)-3-methyl-1H-pyrazolo[3,4-b]pyridine-4-carboxylic acid [2-amino-1-(3-methoxy-phenyl)-ethyl]-amide]
95 | Cc1n[nH]c2nc(-c3ccc(O)cc3)cc(C(=O)N3C[C@@H](C)N[C@@H](C)C3)c12 [Example 24, ((3R,5S)-3,5-Dimethyl-piperazin-1-yl)-[6-(4-hydroxy-phenyl)-3-methyl-1H-pyrazolo[3,4-b]pyridin-4-yl]-methanone]
71 | Cc1n[nH]c2nc(-c3ccc(O)c(F)c3)cc(C(=O)N[C@H]3C[C@H](N)C3)c12 [Example 309, 6-(3-Fluoro-4-hydroxy-phenyl)-3-methyl-1H-pyrazolo[3,4-b]pyridine-4-carboxylic acid (trans-3-amino-cyclobutyl)-amide]
101 | Cc1n[nH]c2nc(-c3ccc(O)cc3)cc(C(=O)N3CCNC[C@@H]3C(C)C)c12 [Example 202, [6-(4-Hydroxy-phenyl)-3-methyl-1H-pyrazolo[3,4-b]pyridin-4-yl]-((S)-2-isopropyl-piperazin-1-yl)-methanone]
82 | Cc1cc(O)ccc1-c1cc(C(=O)N2CCNCC2C(F)(F)F)c2c(C)n[nH]c2n1 (centres unmarked) [Example 144, [6-(4-Hydroxy-2-methyl-phenyl)-3-methyl-1H-pyrazolo[3,4-b]pyridin-4-yl]-(2-trifluoromethyl-piperazin-1-yl)-methanone]
76 | Cc1n[nH]c2nc(-c3ccc(O)c(F)c3)cc(C(=O)N3C[C@H]4CNC[C@H]4C3)c12 [Example 306, [6-(3-Fluoro-4-hydroxy-phenyl)-3-methyl-1H-pyrazolo[3,4-b]pyridin-4-yl]-(3aR,6aS)-hexahydro-pyrrolo[3,4-c]pyrrol-2-yl-methanone]
72 | Cc1n[nH]c2nc(-c3ccc(O)cc3)cc(C(=O)N3CCNCC34Cc3ccccc3C4)c12 [Example 42, (1,3-Dihydro-spiro[indene-2,2′-piperazin]-1′-yl)-[6-(4-hydroxy-phenyl)-3-methyl-1H-pyrazolo[3,4-b]pyridin-4-yl]-methanone]
76 | Cc1n[nH]c2nc(-c3ccc(O)c(F)c3)cc(C(=O)N3CCNC[C@H]3C(=O)NC(C)(C)C)c12 [Example 325, (S)-1-[6-(3-Fluoro-4-hydroxy-phenyl)-3-methyl-1H-pyrazolo[3,4-b]pyridine-4-carbonyl]-piperazine-2-carboxylic acid tert-butylamide]
92 | Cc1n[nH]c2nc(-c3ccc(O)cc3)cc(C(=O)N3CC(C)NCC3c3ccccc3)c12 (centres unmarked) [Example 70, [6-(4-Hydroxy-phenyl)-3-methyl-1H-pyrazolo[3,4-b]pyridin-4-yl]-(5-methyl-2-phenyl-piperazin-1-yl)-methanone]
96 | Cc1n[nH]c2nc(-c3ccc(O)cc3)cc(C(=O)N3CC(CN)C3)c12 [Example 90, (3-Aminomethyl-azetidin-1-yl)-[6-(4-hydroxy-phenyl)-3-methyl-1H-pyrazolo[3,4-b]pyridin-4-yl]-methanone]
88 | Cc1n[nH]c2nc(-c3ccc(O)cc3)cc(C(=O)N3C[C@]4(C)CN(C)C[C@](C)(C3)C4O)c12 (stereo partly drawn) [Example 274, [6-(4-Hydroxy-phenyl)-3-methyl-1H-pyrazolo[3,4-b]pyridin-4-yl]-((1S,5R)-9-hydroxy-1,5,7-trimethyl-3,7-diaza-bicyclo[3.3.1]non-3-yl)-methanone]
88 | CCC[C@H]1CN(C(=O)c2cc(-c3ccc(O)cc3)nc3[nH]nc(C)c23)CCN1 [Example 68, [6-(4-Hydroxy-phenyl)-3-methyl-1H-pyrazolo[3,4-b]pyridin-4-yl]-((S)-3-propyl-piperazin-1-yl)-methanone]
78 | Cc1n[nH]c2nc(-c3ccc(O)cc3)cc(C(=O)NCC3CCCNC3)c12 (centres unmarked) [Example 243, 6-(4-Hydroxy-phenyl)-3-methyl-1H-pyrazolo[3,4-b]pyridine-4-carboxylic acid (piperidin-3-ylmethyl)-amide]
